Key:
HIV-1 303B = assay: microbe, parasite or virus in culture; type: cell-based; conditions: for Combination Indices at 50% HIV Inhibition (Confidence Interval) / Combination Indices at 75% HIV Inhibition (Confidence Interval) / Combination Indices at 90% HIV Inhibition (Confidence Interval): in combination with Example 19, 95% CI in parenthesis
Experimental: Virus and cell lines. The T-cell line, MT-2, was obtained through the AIDS Research and Reference Reagent Program. MT-2 cells were sub-cultured twice a week in RPMI 1640 medium supplemented with 10% fetal bovine serum, 2 mM L-glutamine, and 10 mM HEPES buffer pH 7.5. The HIV-1303B virus is a molecular clone derived from the NL4-3 strain of HIV-1 that was obtained from the NIH AIDS Research and Reference Reagent Program. For combinations with enfuvirtide, the NL36G virus was used. […] Virus stocks were made by transfecting 293T cells with a proviral DNA clone using LipofectAMINE PLUS (Invitrogen), according to the manufacturer's instructions. Three days post-transfection, virus was harvested and passaged once in MT-2 cells before titration in MT-2 cells.
Chemicals. Example 19, atazanavir, didanosine, stavudine, efavirenz, and enfuvirtide (T-20) were synthesized by Bristol-Myers Squibb using published or known reactions. […] Tenofovir was tested as tenofovir disopoxil fumarate. Zidovudine and zalcitabine were purchased from Sigma, and emtricitabine from Moravek Biochemicals.
Drug Susceptibility and Cytotoxicity Assays. For drug susceptibility assays, MT-2 cells were infected with HIV-1 303B (or NL36G), at an MOI of 0.001, and seeded into 96-well microtiter plates (2.5×10^5 cells/ml) containing serial dilutions of test compounds. […] Each drug ratio consisted of an array of 3-fold serial dilutions, and was performed with eight or more replicas on separate multi-well plates. HIV infected cells were incubated at 37° C. in 5% CO2, and on day five post-infection, the extent of virus replication was measured by determining cell viability using the CellTiter 96 Aqueous Non-Radioactive Cell Proliferation Assay (Promega). […] Cytotoxicity assays were performed in parallel with the combination experiments. Here, uninfected cells were exposed to the same drug combinations, and assayed after five days for cell viability using the MTS assay.
Analysis of Drug Combination Effects. For determination of combination index (CI) values, drugs were diluted in a fixed ratio and multiple ratios were analyzed. The drug serial dilutions spanned a range of concentrations near the EC50 value of each compound, so that equivalent antiviral activities could be compared. The normalized responses from each therapy are fit to the four-parameter logistic model with a common minimum and maximum across all therapies. Conceptually, this equation can be written as
In this equation, Fa stands for “fraction affected,” and represents the fraction of the viral load that has been inactivated. […] The EC50, represented by the Ci in the above equation, is the drug concentration that is expected to reduce the amount of virus by 50%, and the Bi are the parameters that reflects the slope of the concentration-response curve. For this assay, A is the bottom plateau common to all curves, D is the common top plateau, Bj is the “slope” parameter for the jth therapy, and Cj is the concentration that produces an effect equal to the average of A and D for the jth therapy. Therapies 1 and 2 correspond to mono therapies 1 and 2, respectively. Therapies 3, 4, and 5 correspond to the three combination therapies. EC50 values for each drug were determined from the single drug experiments, using the above equation. The equation was fit using a nonlinear regression routine (Proc Nlin) in PC SAS version 8.2 (SAS Institute Inc.).
To assess antiviral effects of different drug combination treatments, combination indices (CIs) were calculated according to Chou and Rideout. The combination index was computed as
In this equation [Dm]1 and [Dm]2 are the concentrations of drugs that would individually produce a specific level of effect, while [D]1 and [D]2 are the concentrations of drugs in combination that would produce the same level of effect.
Theoretically, additivity is implied if the CI is equal to one, synergy if the CI is less than one, and antagonism if the CI is greater than one.

HIV-integrase = molecular target: T1, HIV-integrase (Human immunodeficiency virus type 1 group M subtype B, UniProt P12497); assay: HIV-Integrase Inhibition Activity (SPA bead strand-transfer assay); type: biochemical; conditions: Table 1; read-out: Activity (HIV-integrase inhibition, IC50 class)
T1 construct: Recombinant integrase (0.26 ng) was incubated with the beads
Summary of the method: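 Strand-transfer read-out: CPM from P33-labelled target DNA (0.1 fmol) joined to bead-bound biotin substrate DNA (5 pmole), with EDTA stop at 10 mM final. Integrase (0.26 ng) prebound to streptavidin SPA beads 90 min, 37° C, and washed before adding inhibitor.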

[1] = EC50 ratio Example 19:comparator 1:1
[2] = EC50 ratio Example 19:comparator 1:2.5
[3] = EC50 ratio Example 19:comparator 2.5:1

CC(C)Nc1cccnc1N1CCN(C(=O)c2cc3cc(NS(C)(=O)=O)ccc3[nH]2)CC1 [Delavirdine, delavirdine]
EC50 (HIV-1 303B; Human immunodeficiency virus 1, MT2, 120 h): 43 nM
Combination Indices at 50% HIV Inhibition (Confidence Interval) (HIV-1 303B; [1]): 0.76 (0.64, 0.89)
Combination Indices at 75% HIV Inhibition (Confidence Interval) (HIV-1 303B; [1]): 0.60 (0.47, 0.74)
Combination Indices at 90% HIV Inhibition (Confidence Interval) (HIV-1 303B; [1]): 0.48 (0.31, 0.64)
Combination Indices at 50% HIV Inhibition (Confidence Interval) (HIV-1 303B; [2]): 0.68 (0.58, 0.77)
Combination Indices at 75% HIV Inhibition (Confidence Interval) (HIV-1 303B; [2]): 0.44 (0.32, 0.54)
Combination Indices at 90% HIV Inhibition (Confidence Interval) (HIV-1 303B; [2]): 0.28 (0.17, 0.39)
Combination Indices at 50% HIV Inhibition (Confidence Interval) (HIV-1 303B; [3]): 0.80 (0.68, 0.92)
Combination Indices at 75% HIV Inhibition (Confidence Interval) (HIV-1 303B; [3]): 0.53 (0.42, 0.63)
Combination Indices at 90% HIV Inhibition (Confidence Interval) (HIV-1 303B; [3]): 0.35 (0.25, 0.45)

C[S+]([O-])c1ccccc1CNC(=O)c1nc2n(c(=O)c1O)CCOC2(C)C (stereo not drawn) [Example 113, Pyrimido[2,1-c][1,4]oxazine-2-carboxamide, 4,6,7,9-tetrahydro-3-hydroxy-9,9-dimethyl-N-[[2-(methylsulfinyl)phenyl]methyl]-4-oxo-]
IC50 (HIV-integrase): 2 to 100 nM

CN(C)CCNC(=O)c1cccc(-c2ccccc2CNC(=O)c2nc3n(c(=O)c2O)CCOC3(C)C)c1 [Example 195, Pyrimido[2,1-c][1,4]oxazine-2-carboxamide, N-[[3′-[[[2-(dimethylamino)ethyl]amino]carbonyl][1,1′-bzphenyl]-2-yl]methyl]-4,6,7,9-tetrahydro-3-hydroxy-9,9-dimethyl-4-oxo-]
IC50 (HIV-integrase): 2 to 100 nM

CC1(C)OCCn2c1nc(C(=O)NCc1cccc3c1NC(=O)C3)c(O)c2=O [Example 94]
IC50 (HIV-integrase): 2 to 100 nM

CC1(C)OCCn2c1nc(C(=O)NCc1ccc3c(c1)OCO3)c(O)c2=O [Example 218, Pyrimido[2,1-c][1,4]oxazine-2-carboxamide, N-(1,3-benzodioxol-5-ylmethyl)-4,6,7,9-tetrahydro-3-hydroxy-9,9-dimethyl-4-oxo-]
IC50 (HIV-integrase): 2 to 100 nM

CC1(C)OCCn2c1nc(C(=O)NCc1cccc(F)c1-n1cncn1)c(O)c2=O [Example 56, Pyrimido[2,1-c][1,4]oxazine-2-carboxamide, N-[[3-fluoro-2-(1H-1,2,4-triazol-1-yl)phenyl]methyl]-4,6,7,9-tetrahydro-3-hydroxy-9,9-dimethyl-4-oxo-]
IC50 (HIV-integrase): 2 to 100 nM

CC1(C)OCCn2c1nc(C(=O)NCc1ccccc1-n1cncn1)c(O)c2=O [Example 216, Pyrimido[2,1-c][1,4]oxazine-2-carboxamide, 4,6,7,9-tetrahydro-3-hydroxy-9,9-dimethyl-4-oxo-N-[[2-(1H-1,2,4-triazol-1-yl)phenyl]methyl]-]
IC50 (HIV-integrase): 2 to 100 nM

CC1(C)OCCn2c1nc(C(=O)NCc1ccc(F)cc1N1CCCC1=O)c(O)c2=O [Example 124, Pyrimido[2,1-c][1,4]oxazine-2-carboxamide, N-[[4-fluoro-2-(2-oxo-1-pyrrolidinyl)phenyl]methyl]-4,6,7,9-tetrahydro-3-hydroxy-9,9-dimethyl-4-oxo]
IC50 (HIV-integrase): 2 to 100 nM

CC1(C)OCCn2c1nc(C(=O)NCc1ccccc1-c1ccc(C#N)cc1)c(O)c2=O [Example 166, Pyrimido[2,1-c][1,4]oxazine-2-carboxamide, N-[(4′-cyano[1,1′-biphenyl]-2-yl)methyl]-4,6,7,9-tetrahydro-3-hydroxy-9,9-dimethyl-4-oxo-]
IC50 (HIV-integrase): 100 to 1000 nM

CC1(C)OCCn2c1nc(C(=O)NCc1ccc(F)cc1C(=O)O)c(O)c2=O [Example 48, Benzoic acid, 5-fluoro-2-[[[(4,6,7,9-tetrahydro-3-hydroxy-9,9-dimethyl-4-oxopyrimido[2,1-c][1,4]oxazin-2-yl)carbonyl]amino]methyl]-]
IC50 (HIV-integrase): 2 to 100 nM

COc1ncccc1-c1ccccc1CNC(=O)c1nc2n(c(=O)c1O)CCOC2(C)C [Example 152, Pyrimido[2,1-c][1,4]oxazine-2-carboxamide, 4,6,7,9-tetrahydro-3-hydroxy-N-[[2-(2-methoxy-3-pyridinyl)phenyl]methyl]-9,9-dimethyl-4-oxo-]
IC50 (HIV-integrase): 2 to 100 nM

Cc1cc(C)cc(CNC(=O)c2nc3n(c(=O)c2O)CCOC3(C)C)c1 [Example 38, Pyrimido[2,1-c][1,4]oxazine-2-carboxamide, N-[(3,5-dimethylphenyl)methyl]-4,6,7,9-tetrahydro-3-hydroxy-9,9-dimethyl-4-oxo-]
IC50 (HIV-integrase): 2 to 100 nM

CC1(C)OCCn2c1nc(C(=O)NCc1ccc(F)c(Cl)c1)c(O)c2=O [Example 32, Pyrimido[2,1-c][1,4]oxazine-2-carboxamide, N-[(3-chloro-4-fluorophenyl)methyl]-4,6,7,9-tetrahydro-3-hydroxy-9,9-dimethyl-4-oxo-]
IC50 (HIV-integrase): 2 to 100 nM

CC1(C)OCCn2c1nc(C(=O)NCc1ccc(-n3cncn3)cc1F)c(O)c2=O [Example 22, Pyrimido[2,1-c][1,4]oxazine-2-carboxamide, N-[[2-fluoro-4-(1H-1,2,4-triazol-1-yl)phenyl]methyl]-4,6,7,9-tetrahydro-3-hydroxy-9,9-dimethyl-4-oxo-]
IC50 (HIV-integrase): 100 to 1000 nM

Cc1ncn(-c2cc(F)ccc2CNC(=O)c2nc3n(c(=O)c2O)CCOC3(C)C)n1 [Example 81, Pyrimido[2,1-c][1,4]oxazine-2-carboxamide, N-[[4-fluoro-2-(3-methyl-1H-1,2,4-triazol-1-yl)phenyl]methyl]-4,6,7,9-tetrahydro-3-hydroxy-9,9-dimethyl-4-oxo-]
IC50 (HIV-integrase): 2 to 100 nM

CC1(C)OCCn2c1nc(C(=O)NCc1cccc3c1S(=O)(=O)CC3)c(O)c2=O [Example 140, Pyrimido[2,1-c][1,4]oxazine-2-carboxamide, N-[(2,3-dihydro-1,1-dioxidobenzo[b]thien-7-yl)methyl]-4,6,7,9-tetrahydro-3-hydroxy-9,9-dimethyl-4-oxo-]
IC50 (HIV-integrase): 2 to 100 nM

CC1(C)OCCn2c1nc(C(=O)NCc1cccc(F)c1)c(O)c2=O [Example 220, Pyrimido[2,1-c][1,4]oxazine-2-carboxamide, N-[(3-fluorophenyl)methyl]-4,6,7,9-tetrahydro-3-hydroxy-9,9-dimethyl-4-oxo-]
IC50 (HIV-integrase): 2 to 100 nM

CC1(C)OCCn2c1nc(C(=O)NCc1ccc(F)c(C(F)(F)F)c1)c(O)c2=O [Example 241, Pyrimido[2,1-c][1,4]oxazine-2-carboxamide, N-[[4-fluoro-3-(trifluoromethyl)phenyl]methyl]-4,6,7,9-tetrahydro-3-hydroxy-9,9-dimethyl-4-oxo-]
IC50 (HIV-integrase): 2 to 100 nM

COc1cncc(-c2ccccc2CNC(=O)c2nc3n(c(=O)c2O)CCOC3(C)C)c1 [Example 153, Pyrimido[2,1-c][1,4]oxazine-2-carboxamide, 4,6,7,9-tetrahydro-3-hydroxy-N-[[2-(5-methoxy-3-pyridinyl)phenyl]methyl]-9,9-dimethyl-4-oxo-]
IC50 (HIV-integrase): 2 to 100 nM

CC1(C)OCCn2c1nc(C(=O)NCc1ccc(F)cc1-c1ccn[nH]1)c(O)c2=O [Example 85, Pyrimido[2,1-c][1,4]oxazine-2-carboxamide, N-[[4-fluoro-2-(1H-pyrazol-5-yl)phenyl]methyl]-4,6,7,9-tetrahydro-3-hydroxy-9,9-dimethyl-4-oxo-]
IC50 (HIV-integrase): 2 to 100 nM

CC1(C)OCCn2c1nc(C(=O)NCc1ccc(F)cc1N1CCCCS1(=O)=O)c(O)c2=O [Example 27, Pyrimido[2,1-c][1,4]oxazine-2-carboxamide, N-[[4-fluoro-2-(tetrahydro-1,1-dioxido-2H-1,2-thiazin-2-yl)phenyl]methyl]-4,6,7,9-tetrahydro-3-hydroxy-9,9-dimethyl-4-oxo-]
IC50 (HIV-integrase): 2 to 100 nM

From US7491819B1 (priority 2004, dated 2009)
